Laboratory results as given in patent publication US20230172959A1, “USE OF NMN FOR THE PREVENTION AND/OR TREATMENT OF A BACK PAIN AND CORRESPONDING COMPOSITIONS” (NUVAMID SA, priority 2020, published 2023).
Where “and” joins values, the source holds several entries; their conditions need not be identical. Identical values can stand only once.

Experiments:
chronic lumbalgia [1] = experiment: Lequesne algo-functional index, 10-day satisfaction study in 12 volunteers; type: in vivo, human
Protocol: As for the Lequesne score, it varies from 0 to 22: the higher the score, the more extreme or even intolerable the impairment. From 8 to 10, the impairment is qualified as significant and for an index score greater than or equal to 10, the impairment is qualified as very significant. A satisfaction study was carried out on a group of 12 volunteers, aged 42±8 years, consisting of seven female and five male subjects. The main objective of this study was to evaluate the level of satisfaction of subjects with regard to the evolution of their lumbalgia (low back pain) during the morning and/or evening application of a composition according to the invention containing 5% by weight of NMN. A composition in the form of an oil-in-water emulsion comprising 5% NMN was formulated as follows, the ingredients being designated by their INCI (International Nomenclature of Cosmetic Ingredients) name: Aqua, Paraffinum liquidum, Cetyl alcohol, Glyceryl stearate, Benzyl PCA, Ceteareth-20, Ceteareth-12, Cetyl Palmitate, Cocoglycerides, Cetearyl alcohol, Sodium Hydroxide, NMN. The composition was prepared according to any method well known to the person skilled in the art. The study took place over 10 days. At baseline, ie upon inclusion (DO), the selected subjects provide their demographic characteristics (age, weight, height), indicate the period of persistence and intensity of the pain on a Visual Analogue Scale, and complete the WOMAC and Lequesne questionnaires. […] On day 10, the volunteers complete the WOMAC questionnaire, the Lequesne questionnaire, the Visual Analogue Scale (VAS) of pain, indicating the perceived improvement in lumbalgia pain relief as measured by the PGI-I index (abbreviation for “Patient Global Improvement Impression”), satisfaction with regard to evolution of the lumbalgia on a Likert scale as well as the ease of application and penetration of the composition, assessment of the texture and odour of the composition, likelihood of re-use thereof in the event of recurrence of a similar pain, and recommendation of use to third parties presenting with pain of similar nature. […]

chronic lumbalgia [2] = experiment: Visual Analogue Scale (VAS) of lumbalgia pain, 10-day satisfaction study in 12 volunteers; type: in vivo, human; conditions: for VAS lumbalgia pain, median / VAS lumbalgia pain, mean: 5% NMN oil-in-water emulsion topical twice a day, scale 0-100; for VAS lumbalgia pain, median: baseline D 0 72.5; for VAS lumbalgia pain, mean: baseline D 0 73.4
Protocol: A satisfaction study was carried out on a group of 12 volunteers, aged 42±8 years, consisting of seven female and five male subjects. The main objective of this study was to evaluate the level of satisfaction of subjects with regard to the evolution of their lumbalgia (low back pain) during the morning and/or evening application of a composition according to the invention containing 5% by weight of NMN. The duration of the existence of pains in the lumbar spine region was on average 4±3 years (ie […]) while the current pains of the subjects dated back to 2±3 years pre-baseline (before inclusion). These pains occurred mostly spontaneously (58.3%). More precisely, seven participants presented with a lumbalgia of spontaneous origin, one participant presented with a lumbalgia resulting from a physical or sporting activity, two participants attributed their lumbalgia to the practice of gardening, and two other participants attributed their lumbalgia to another of these causes. The participants therefore all had chronic lumbalgia. A composition in the form of an oil-in-water emulsion comprising 5% NMN was formulated as follows, the ingredients being designated by their INCI (International Nomenclature of Cosmetic Ingredients) name: Aqua, Paraffinum liquidum, Cetyl alcohol, Glyceryl stearate, Benzyl PCA, Ceteareth-20, Ceteareth-12, Cetyl Palmitate, Cocoglycerides, Cetearyl alcohol, Sodium Hydroxide, NMN. The composition was prepared according to any method well known to the person skilled in the art. The study took place over 10 days. At baseline, ie upon inclusion (DO), the selected subjects provide their demographic characteristics (age, weight, height), indicate the period of persistence and intensity of the pain on a Visual Analogue Scale, and complete the WOMAC and Lequesne questionnaires. These different scales were used in order to assess by different means the effect of NMN on lumbalgia. Over the subsequent 9 day period, each evening the subjects fill in the Visual Analogue Scale of pain, ensuring any discomfort or problems arising or the taking of analgesics are reported therein. On day 10, the volunteers complete the WOMAC questionnaire, the Lequesne questionnaire, the Visual Analogue Scale (VAS) of pain, indicating the perceived improvement in lumbalgia pain relief as measured by the PGI-I index (abbreviation for “Patient Global Improvement Impression”), satisfaction with regard to evolution of the lumbalgia on a Likert scale as well as the ease of application and penetration of the composition, assessment of the texture and odour of the composition, likelihood of re-use thereof in the event of recurrence of a similar pain, and recommendation of use to third parties presenting with pain of similar nature. The PGI-I index is an index that serves as means for evaluating the response to a treatment. The Likert scale is a psychometric tool used for measuring an attitude in individuals, which consists of one or more statements for which the individual responding expresses their degree of agreement or disagreement.

SMILES: NC(=O)c1ccc[n+]([C@@H]2O[C@H](COP(=O)([O-])O)[C@@H](O)[C@H]2O)c1 (stereo in doubt) [NMN, nicotinamide mononucleotide]
- reduction in the Lequesne score (chronic lumbalgia [1]; baseline to study endpoint): 38.8%
- subjects with no impairment or only a modest or slight impairment (Lequesne) (chronic lumbalgia [1]; end of the study): 83.4%
- Lequesne algo-functional score (chronic lumbalgia [1]; study endpoint (day 10), baseline 8.3±2.5, p<0.001, 5% NMN emulsion topical): 5.3±3.8
- reduction of lumbalgia pain measured by the VAS (chronic lumbalgia [2]; 10 days of application vs baseline, 5% NMN emulsion topical, p<0.0001): 58.7±29.2% and 58.7%
- VAS lumbalgia pain, median (chronic lumbalgia [2]; D 1): 60.5
- VAS lumbalgia pain, mean (chronic lumbalgia [2]; D 1): 61.1
- VAS lumbalgia pain, median (chronic lumbalgia [2]; D 2): 59.0
- VAS lumbalgia pain, mean (chronic lumbalgia [2]; D 2): 56.8
- VAS lumbalgia pain, median (chronic lumbalgia [2]; D 3): 57.5
- VAS lumbalgia pain, mean (chronic lumbalgia [2]; D 3): 52.3
- VAS lumbalgia pain, median (chronic lumbalgia [2]; D 4): 51.0
- VAS lumbalgia pain, mean (chronic lumbalgia [2]; D 4): 49.4
- VAS lumbalgia pain, median (chronic lumbalgia [2]; D 5): 45.5
- VAS lumbalgia pain, mean (chronic lumbalgia [2]; D 5): 45.7
- VAS lumbalgia pain, median (chronic lumbalgia [2]; D 6): 42.5
- VAS lumbalgia pain, mean (chronic lumbalgia [2]; D 6): 42.4
- VAS lumbalgia pain, median (chronic lumbalgia [2]; D 7): 48.0
- VAS lumbalgia pain, mean (chronic lumbalgia [2]; D 7): 45.2
- VAS lumbalgia pain, median (chronic lumbalgia [2]; D 8): 38.0
- VAS lumbalgia pain, mean (chronic lumbalgia [2]; D 8): 35.8
- VAS lumbalgia pain, median (chronic lumbalgia [2]; D 9): 26.0
- VAS lumbalgia pain, mean (chronic lumbalgia [2]; D 9): 28.3
- VAS lumbalgia pain, median (chronic lumbalgia [2]; D 10): 30.0
- VAS lumbalgia pain, mean (chronic lumbalgia [2]; D 10): 30.8±22.6 and 30.8
- mean time period to obtain an initial 50% reduction in pain relative to baseline (chronic lumbalgia [2]; VAS, 5% NMN emulsion topical twice a day): 5.0 ± 2.9 days
